Data as given in PubChem BioAssay AID270 (DTP/NCI, 2004).
“And” between values parts separate entries of the source, which are not always exact repeats. Equal values may be shown once. Inconclusive results are not listed. *1 amine or outer side, *2 acyl side, *3 side chain or, on linkers, in order; H or OH if unused. Where a SMILES comes first, the peptide text is derived from it. Bridges are numbered along the chain shown (N, C = ends). Roman numbers before positions name the chains, in order. [ ]: non-standard residue; d: D form. Actinocin(9to1) = Cc1c2oc3c(C)ccc(C(=O)[*:1])c3nc-2c(C(=O)[*:2])c(N)c1=O; aThr = C[C@H](O)[C@H](N)C(=O)O; NMeV = CN[C@H](C(=O)O)C(C)C; Sar = CNCC(=O)O

System: BDF1 mice, s.c. Lewis lung carcinoma, T/C %
Assay: NCI In Vivo Anticancer Drug Screen. Data for tumor model Lewis Lung Carcinoma (subcutaneous) in B6D2F1 (BDF1) mice
Summary of the method: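 The value reflects a ratio in which the treated cohort's survival time or tumour size is compared against mice receiving only vehicle.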

With `CC(C)Sc1nc(N)nc2nc[nH]c12` the T/C (endpoint: mean tumor weight, dose: 12.5 mg/kg/injection, schedule: Q01DX011 (ip), vehicle: other, higher = larger tumour) was 75 % of control, the T/C (endpoint: mean tumor weight, dose: 25.0 mg/kg/injection, schedule: Q01DX011 (ip), vehicle: other, higher = larger tumour) was 95 % of control and the T/C (endpoint: mean tumor weight, dose: 50.0 mg/kg/injection, schedule: Q01DX011 (ip), vehicle: other, higher = larger tumour) was 67 % of control. For the same compound, the T/C (endpoint: mean tumor weight, dose: 100.0 mg/kg/injection, schedule: Q01DX011 (ip), vehicle: other, higher = larger tumour) was 48 % of control and 62 % of control, the T/C (endpoint: mean tumor weight, dose: 200.0 mg/kg/injection, schedule: Q01DX011 (ip), vehicle: other, higher = larger tumour) was 52 % of control and the T/C (endpoint: mean tumor weight, dose: 400.0 mg/kg/injection, schedule: Q01DX011 (ip), vehicle: other, higher = larger tumour) was 30 % of control.

`C[n+]1ccc(Nc2ccc(NC(=O)c3ccc(Nc4cc[n+](C)c5ccc(N)cc45)cc3)cc2)cc1` was tested, and the T/C (endpoint: median survival time, dose: 1.0 mg/kg/injection, schedule: Q01DX009 (ip), vehicle: Klucel (hydroxypropylcellulose) (HPC), higher = longer survival) was 167 % of control and the T/C (endpoint: median survival time, dose: 8.0 mg/kg/injection, schedule: Q01DX009 (ip), vehicle: Klucel (hydroxypropylcellulose) (HPC), higher = longer survival) was 244 % of control.

For `Cc1c2oc3c(C)ccc(C(=O)N[C@@H]4C(=O)N[C@H](C(C)C)C(=O)N5CCC[C@H]5C(=O)N(C)CC(=O)N(C)[C@@H](C(C)C)C(=O)O[C@H]4C)c3nc-2c(C(=O)N[C@@H]2C(=O)N[C@H](C(C)C)C(=O)N3CCC[C@H]3C(=O)N(C)CC(=O)N(C)[C@@H](C(C)C)C(=O)O[C@H]2C)c(N)c1=O` (I: [aThr][dV]P[Sar][NMeV] / II: [aThr][dV]P[Sar][NMeV]; ester I:1-I:C, II:1-II:C; linker I:N-II:N via Actinocin(9to1)), the T/C (endpoint: mean tumor weight, dose: 0.03 mg/kg/injection, schedule: Q01DX011 (ip), vehicle: saline, higher = larger tumour) was 89 % of control, the T/C (endpoint: mean tumor weight, dose: 0.05 mg/kg/injection, schedule: Q01DX011 (ip), vehicle: saline, higher = larger tumour) was 55 % of control and the T/C (endpoint: mean tumor weight, dose: 12.0 micrograms/kg/injection, schedule: Q01DX011 (ip), vehicle: other, higher = larger tumour) was 122 % of control. The T/C (endpoint: mean tumor weight, dose: 25.0 micrograms/kg/injection, schedule: Q01DX011 (ip), vehicle: other, higher = larger tumour) was 95 % of control and 98 % of control, the T/C (endpoint: mean tumor weight, dose: 50.0 micrograms/kg/injection, schedule: Q01DX011 (ip), vehicle: other, higher = larger tumour) was 42 % of control and 49 % of control and the T/C (endpoint: median survival time, dose: 12.5 micrograms/kg/injection, schedule: Q01DX009 (ip), vehicle: saline, higher = longer survival) was 98 % of control and 122 % of control. The T/C (endpoint: median survival time, dose: 12.5 micrograms/kg/injection, schedule: Q01DX009 (ip), vehicle: water, higher = longer survival) was 112 % of control, the T/C (endpoint: median survival time, dose: 13.0 micrograms/kg/injection, schedule: Q01DX009 (ip), vehicle: saline, higher = longer survival) was 116 % of control and the T/C (endpoint: median survival time, dose: 25.0 micrograms/kg/injection, schedule: Q01DX009 (ip), vehicle: water, higher = longer survival) was 120 % of control. For the same compound, the T/C (endpoint: median survival time, dose: 50.0 micrograms/kg/injection, schedule: Q01DX009 (ip), vehicle: water, higher = longer survival) was 102 % of control, the T/C (endpoint: median survival time, dose: 75.0 micrograms/kg/injection, schedule: Q04DX003 (ip), vehicle: water, higher = longer survival) was 153 % of control and the T/C (endpoint: median survival time, dose: 150.0 micrograms/kg/injection, schedule: Q04DX003 (ip), vehicle: water, higher = longer survival) was 105 % of control. The T/C (endpoint: median tumor weight (est.), dose: 12.0 micrograms/kg/injection, schedule: Q01DX009 (ip), vehicle: saline, higher = larger tumour) was 88 % of control, the T/C (endpoint: median tumor weight (est.), dose: 25.0 micrograms/kg/injection, schedule: Q01DX009 (ip), vehicle: saline, higher = larger tumour) was 98 % of control and the T/C (endpoint: median tumor weight (est.), dose: 50.0 micrograms/kg/injection, schedule: Q01DX009 (ip), vehicle: saline, higher = larger tumour) was 70 % of control. The T/C (endpoint: median tumor weight (est.), dose: 100.0 micrograms/kg/injection, schedule: Q01DX009 (ip), vehicle: saline, higher = larger tumour) was 51 % of control.

`NCC(O)c1ccc(O)c(O)c1` (configuration not stated) was tested, and the T/C (endpoint: mean tumor weight, dose: 2.5 mg/kg/injection, schedule: Q01DX011 (ip), vehicle: saline, higher = larger tumour) was 105 % of control, the T/C (endpoint: mean tumor weight, dose: 5.0 mg/kg/injection, schedule: Q01DX011 (ip), vehicle: saline, higher = larger tumour) was 161 % of control and the T/C (endpoint: mean tumor weight, dose: 10.0 mg/kg/injection, schedule: Q01DX011 (ip), vehicle: saline, higher = larger tumour) was 63 % of control.

For `C=C1C(=O)O[C@H]2[C@H]1[C@H](OC(=O)/C(C)=C\C)CC(=C)[C@@H]1[C@H](O)[C@H]3O[C@@]3(C)[C@@]12O`, the T/C (endpoint: mean tumor weight, dose: 7.5 mg/kg/injection, schedule: Q01DX011 (ip), vehicle: saline, higher = larger tumour) was 63 % of control, the T/C (endpoint: mean tumor weight, dose: 15.0 mg/kg/injection, schedule: Q01DX011 (ip), vehicle: saline, higher = larger tumour) was 70 % of control and the T/C (endpoint: mean tumor weight, dose: 30.0 mg/kg/injection, schedule: Q01DX011 (ip), vehicle: saline, higher = larger tumour) was 63 % of control.

`Cc1ccc(NC(=O)N(CCCl)N=O)cc1NC(=O)N(CCCl)N=O` was tested, and the T/C (endpoint: median survival time, dose: 3.12 mg/kg/injection, schedule: Q01DX009 (ip), vehicle: other, higher = longer survival) was 93 % of control and the T/C (endpoint: median survival time, dose: 6.25 mg/kg/injection, schedule: Q01DX009 (ip), vehicle: other, higher = longer survival) was 87 % of control.
